This note sets out measurements from patent publication US20250207124A1, “COMPOSITIONS AND METHODS FOR EXPRESSING SYNTHETIC GENETIC ELEMENTS ACROSS DIVERSE MICROORGANISMS” (priority 2022, published 2025).

The experiment concerns E. coli in vitro translation reaction. The experiment is described as follows: PURExpress in vitro transcription/translation of a GFP reporter. To be noted: read-out: half-maximal inhibition (IC50) of translation of a GFP reporter; PURExpress (NEB) protein synthesis system; DNA encoding eGFP; endpoint fluorescence after 4 hours.

pIC50: −log10 of the molar value.

Procedure: The PureExpress kit (NEB) was used in accordance with manufacture's protocol to assay for the in-vitro production of GFP. For each sample a 25 uL reaction was performed containing 100 ng DNA or 500 ng RNA template encoding GFP (transcription in this kit is via T7 RNA Polymerase), plus indicated amounts of purified compound dissolved in H2O. Reactions were loaded into a white 384 well plate and production of fluorescent GFP protein was monitored with a Synergy Ht Plate Reader (Bio-tek). Fluorescence reached an endpoint at 4 hours. To produce DNA template, a PCR product of the pT7-GFP gene was amplified (Kapa HiFi Polymerase) and purified by gel electrophoresis followed by gel purification (Qiagen). To produce RNA template, the DNA PCR product was transcribed with the HiScribe T7 High Yield RNA Synthesis kit (NEB), treated with DNasel, and purified by the Monarch RNA Purification Kit (NEB). RNA was quantified by Qubit.
To quantify IC50 values for translation inhibition activity (FIG. 14A), raw fluorescence values were linearly converted to percent activity. […] Graphpad Prism was used to plot a hyperbolic non-linear regression.

Turning to `CC[C@H]1OC(=O)[C@H](C)[C@@H](O[C@H]2C[C@@](C)(OC)[C@@H](O)[C@H](C)O2)[C@H](C)[C@@H](O[C@@H]2O[C@H](C)C[C@H](N(C)C)[C@H]2O)[C@](C)(O)C[C@@H](C)C(=O)[C@H](C)[C@@H](O)[C@]1(C)O` [erythromycin], the pIC50 (commonly the IC50 on a negative log10 scale, so that one unit is a factor of ten) is 5.70.
